From patent US9289433B2, “Proteasome inhibitors and uses thereof” (Yeda Research and Development Co. Ltd., priority 2009, dated 2016)
Non-standard residues stand in square brackets, D forms with d. Residues, ends and D or L forms follow the SMILES beside them. *: point of attachment. Nle = CCCC[C@H](N)C(=O)O; Cbz = O=C(OCc1ccccc1)*

Legend:
proteasome [1] = molecular target: T1, proteasome (Homo sapiens, UniProt P28072+P28074+Q99436); experiment: Image-based PIR nuclear translocation assay in H1299-PIR reporter cells; format: cell-based; conditions: for PIR nuclear translocation in the NCI Diversity Set screen: 1 and 10 μM, 12 hours incubation; for PIR nuclear translocation upon treatment with known proteasome inhibitors: H1299-PIR cells, 6 hours, microscopy
T1 construct: endogenous in cells; host or cells: H1299-PIR (H1299 stably expressing the p53-YFP reporter)
From the text: To construct a YFP-tagged Proteasome Inhibitor Reporter (PIR) protein, cDNA encoding a full-length human p53 R175H mutant was amplified by PCR from a cDNA clone, and three consecutive lysine residues in the bipartite Nuclear Localization Signal (NLS) were replaced with alanines by PCR-based, site-directed mutagenesis [Higuchi R, et al., (1988) Nucleic Acids Res 16: 7351-7367; Ho S N, et al (1989) Gene 77: 51-59]. The DNA fragment was cloned into the BglII and NotI sites of pLPCX retroviral vector (Clontech) in-frame to the N-terminus of the yellow fluorescent protein (YFP), using the NotI/ClaI restriction sites. The PIR protein was expressed in an H1299 non-small cell lung carcinoma cell line, following retroviral infection, and the cells were cultured in RPMI 1640 medium containing 10% fetal bovine serum, 2 mM glutamine and 1% penicillin-streptomycin (all from Sigma-Aldrich) in a humidified atmosphere of 5% CO2 at 37° C. Fluorescent cells were isolated by flow cytometry, and single-cell cloning was used to generate a morphologically uniform cell population.
PIR-expressing H1299 cells were seeded at a density of 800 cells per well in 384-well assay plates (F-bottom, μClear, black, tissue-culture-treated) (Greiner Bio-One). Cells were cultured for 24 hours and treated with the library compounds at two concentrations (1 and 10 μM) in RPMI 1640. In each assay plate, cells in 24 wells treated with 0.2% DMSO alone were used as controls. […] Following 12 hours of incubation, cells were fixed in 3% paraformaldehyde for 20 minutes, then washed with PBS and screened for localization of the PIR protein.
WiScan™ Cell Imaging System (Idea Bio-Medical) was used for this screen [Paran Y et al., 2006, Methods Enzymol 414: 228-247]. The system is based on an IX71 microscope (Olympus), equipped with a fast laser AutoFocus device and an automated stage. Thirty-six fields were acquired from every well using a 60×/0.9 air objective, stored, and tiled into montages to detect consistent effects. Scoring of the nuclear translocation of the fluorescent PIR protein was carried out manually.
The cells were then fixed and scored for nuclear translocation of PIR.

proteasome [2] = molecular target: T1, proteasome; experiment: Western blot for accumulation of polyubiquitinated proteins and β-catenin in H1299-PIR cells; format: cell-based; conditions: 6 hours
Method: H1299-PIR cells were lysed with radioimmune precipitation assay buffer (1% NP-40, 1% sodium deoxycholate, 0.1% SDS, 150 mM NaCl, 50 mM Tris, pH 8.0) containing a protease inhibitor cocktail from Roche Applied Science. Protein extracts were subjected to 8% SDS-PAGE, transferred to a nitrocellulose membrane (Whatman), and probed with monoclonal anti-p53 (DO1, Santa Cruz Biotechnology), anti-ubiquitin (Covance), anti-β-catenin (Sigma) and anti-β-tubulin (Sigma) primary antibodies.
One characteristic outcome of proteasome inhibition is the accumulation of ubiquitinated proteins in the treated cells. […] Following incubation, cell extracts were analyzed by Western blot, using anti-ubiquitin and anti-β-catenin antibodies.

[3] = test system: purified rabbit 26S proteasomes; experiment: In vitro proteasome activity assay, Suc-LLVY-AMC degradation; format: biochemical; conditions: MG132 control at 5 μM
Method: For measuring proteasome activity, purified 20S or 26S proteasomes prepared from rabbit muscles were incubated at a final concentration of 16 nM, with 100 μM fluorogenic 7-amido-4-methylcoumarin (AMC) tetrapeptide substrate Suc-LLVY-AMC (Bachem) and the stated concentration of the hit compounds in the presence of 100 μl of assay buffer (50 mM Hepes, 5 mM MgCl2, 2 mM ATP and 1 mM DTT). […] The time-dependent increase of hydrolyzed AMC groups was measured in a 96-well plate equilibrated to 37° C., using a Varioscan multi-well plate reader (Thermo Fisher Scientific, Inc.) in a kinetic mode, in which the recording intervals were set to 1 minute. The excitation wavelength was 370 nm; fluorescence emission was recorded at 465 nm.
To directly test the capacity of the four compounds to inhibit activity in mammalian proteasomes, an in vitro activity assay was performed in which the hit compounds were tested for their effects on the degradation of the model fluorogenic tetrapeptide LLVY-AMC by purified rabbit 26S proteasomes.

PIR-H1299 cells = experiment: AlamarBlue cell viability assay; format: cell-based, human; conditions: 48 hours, 0.1 to 100 μM
Method: The effect of each hit compound on cell viability was tested at 11 different concentrations, ranging from 0.1-100 μM. PIR cells were plated onto 384-well microplates for 24 hours, and then treated for 48 h with the library compounds. Cell viability was determined using the colorimetric AlamarBlue® (Invitrogen) viability assay, according to the manufacturer's instructions.
Proteasome inhibitors are known to be particularly cytotoxic to malignant cells via multiple mechanisms. To directly test the effects of the new proteasome inhibitors discovered in this study on cell viability, PIR-expressing H1299 cells were treated for 48 hours with each of the four compounds, at a wide range of concentrations, ranging from 0.1 to 100 μM. The cells were then subjected to an Alamar Blue viability assay, which quantifies the number of metabolically active cells. […] For all proteasome inhibitors examined in this screen, there was a high correlation between proteasomal inhibitory activity and cell viability.

[4] = test system: NCI-60 panel of human tumor cell lines; conditions: molar concentration, cited from earlier work; for average −log10 GI50 over the panel: all NCI-60 cell lines; for overall −log10 GI50, leukemia cells: leukemia subpanel
proteasome [5] = molecular target: T1, proteasome; conditions: after 20 hours of treatment, flow cytometry; cited from earlier work
MDA-MB-231 cells = experiment: Cell viability, malignant breast carcinoma cells; format: cell-based, human
MCF10A = experiment: Cell viability, normal breast epithelial cell line; format: cell-based, human; conditions: considerably higher concentration than for MDA-MB-231
[6] = molecular target: proteasome β2, β1 and β5 activities (Homo sapiens, UniProt P28072+P28074+Q99436); experiment: Inhibition of tryptic-, caspase- and chymotrypsin-like proteasome activities; format: biochemical
Sequence of proteasome β2, β1 and β5 activities (Q99436 44-277): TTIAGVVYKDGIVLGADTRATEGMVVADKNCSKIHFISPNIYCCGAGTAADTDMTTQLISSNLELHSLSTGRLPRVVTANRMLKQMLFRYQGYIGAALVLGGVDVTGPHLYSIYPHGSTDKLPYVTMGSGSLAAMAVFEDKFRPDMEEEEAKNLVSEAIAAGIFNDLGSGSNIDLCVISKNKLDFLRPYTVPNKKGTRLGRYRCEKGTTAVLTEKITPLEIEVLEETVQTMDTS
Sequence of proteasome β2, β1 and β5 activities (P28072 whole entry): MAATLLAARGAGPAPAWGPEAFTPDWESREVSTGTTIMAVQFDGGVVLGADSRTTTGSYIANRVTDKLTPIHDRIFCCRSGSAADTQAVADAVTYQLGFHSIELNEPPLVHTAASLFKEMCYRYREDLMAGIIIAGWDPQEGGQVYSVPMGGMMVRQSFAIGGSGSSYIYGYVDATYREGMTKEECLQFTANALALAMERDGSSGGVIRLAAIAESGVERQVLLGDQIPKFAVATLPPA
Sequence of proteasome β2, β1 and β5 activities (P28074 60-263): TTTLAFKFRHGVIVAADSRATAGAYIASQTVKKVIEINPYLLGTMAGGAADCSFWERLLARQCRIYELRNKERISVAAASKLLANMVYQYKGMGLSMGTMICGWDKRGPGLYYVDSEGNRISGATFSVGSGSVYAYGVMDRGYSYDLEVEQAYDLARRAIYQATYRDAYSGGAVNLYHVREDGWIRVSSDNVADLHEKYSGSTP
Sequence of proteasome β2, β1 and β5 activities (P49720 whole entry partner): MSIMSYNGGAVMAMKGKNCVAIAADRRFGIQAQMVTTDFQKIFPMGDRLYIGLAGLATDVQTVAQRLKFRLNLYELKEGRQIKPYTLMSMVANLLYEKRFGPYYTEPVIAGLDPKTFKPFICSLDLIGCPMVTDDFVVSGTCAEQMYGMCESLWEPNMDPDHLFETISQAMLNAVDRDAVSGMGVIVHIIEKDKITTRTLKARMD

| Molecule | PIR nuclear translocation in the NCI Diversity Set screen (proteasome [1]) | GI50 (PIR-H1299 cells) [nM] | average −log10 GI50 over the panel [4] | overall −log10 GI50, leukemia cells [4] | PIR nuclear translocation upon treatment with known proteasome inhibitors (proteasome [1]) | inhibition of LLVY-AMC degradation by purified 26S proteasome ([3]; 30 μM compound) | further results |
| --- | --- | --- | --- | --- | --- | --- | --- |
| 8-Quinolinol salicylate [NSC3907] | positive in the assay | 47000 | 5.3 | 6.249 | – | – | accumulation of polyubiquitinated proteins and β-catenin (inhibitory effect on proteasomal degradation) (proteasome [2]; 20 μM): less of an inhibitory effect; inhibition of LLVY-AMC degradation by purified 26S proteasome ([3]; 100 μM compound): only a minor effect |
| CCCC[C@@H](C=O)NC(=O)[C@H](CC(C)C)NC(=O)[C@H](CC(C)C)NC(C)=O [ALLN, reference compound] (Ac-Leu-Leu-[Nle]-aldehyde) | – | – | – | – | PIR translocates into the nucleus | – | – |
| CC(C)C[C@H](NC(=O)[C@H](Cc1ccccc1)NC(=O)c1cnccn1)B(O)O [Bortezomib, Pyz-Phe-boroLeu, reference compound] | – | – | – | – | PIR translocates into the nucleus | – | – |
| CC(C)C[C@@H](C=O)NC(=O)[C@H](CC(C)C)NC(=O)[C@H](CC(C)C)NC(=O)OCc1ccccc1 [MG132, reference compound] (Cbz-Leu-Leu-Leu-aldehyde) | – | – | – | – | PIR translocates into the nucleus | – | concentration at which MG132 is detected (proteasome [5]): 2.5 µM |

Further lines, with some results ahead:

| PIR nuclear translocation in the NCI Diversity Set screen (proteasome [1]) | GI50 (PIR-H1299 cells) [nM] | Molecule | average −log10 GI50 over the panel [4] | overall −log10 GI50, leukemia cells [4] | PIR nuclear translocation upon treatment with known proteasome inhibitors (proteasome [1]) | inhibition of LLVY-AMC degradation by purified 26S proteasome ([3]; 30 μM compound) | further results |
| --- | --- | --- | --- | --- | --- | --- | --- |
| positive in the assay | 96000 | NC(CCC(=O)O)C(=O)O (centres unmarked) [NSC99671] | 4.1 | 4.473 | – | moderate inhibitory effect | accumulation of polyubiquitinated proteins and β-catenin (inhibitory effect on proteasomal degradation) (proteasome [2]; 50 μM): less of an inhibitory effect |
| positive in the assay | 270 | CS/C([S-])=N/N=C/c1cccc(C)n1.CS/C([S-])=N/N=C/c1cccc(C)n1.[Cu+2] [NSC310551] | 6.6 | 7.028 | – | levels of inhibition comparable to that of MG132 | accumulation of polyubiquitinated proteins and β-catenin (inhibitory effect on proteasomal degradation) (proteasome [2]; 0.3 μM): inhibitory activity comparable to that of 5 μM MG132 |
| positive in the assay | 170 | CSC(=[SH+])[N-]N=C(c1ccccn1)c1ccccn1.[Cu][Br] [NSC321206] | 7.2 | 7.73 | – | levels of inhibition comparable to that of MG132 | accumulation of polyubiquitinated proteins and β-catenin (inhibitory effect on proteasomal degradation) (proteasome [2]; 0.15 μM): inhibitory activity comparable to that of 5 μM MG132; GI50 (MDA-MB-231 cells; MDA-MB-231): 400 nM; effect on cell viability (MDA-MB-231 cells; MDA-MB-231, 1 μM): effectively eliminated all MDA-MB-231 cells; effect on cell viability (MCF10A): only partially affected; inhibition of Tryptic like (β2), Caspase like (β1) and Chymotrypsin like (β5) activities of the proteasome [6]: observed inhibition |
